Source: US12643891B2, “SPAK/OSR inhibitors and methods of using same” (YALE UNIVERSITY, priority 2019, dated 2026)

What was measured:
[1] = tested on: NKCC1 phosphorylation in mDCT15 cells; assay: NKCC1 phosphorylation in mDCT15 cell lysates (T^PNKCC1 immunoblot); assay type: cell-based, mouse; conditions: 40 μM, span of 4 hrs
Method: Mouse distal convoluted tubule (mDCT15) cells (Naguro, et al., 2012, Nature comm. 3:1285) were cultured in DMEM/Ham's F-12 media supplemented with 1% PSN and 5% FBS. Before each set of experiments 2×10^5 cells/well were plated in 24-well plates treated with 100 ug/mL poly-D-lysine and grown at 37° C. in 5% CO2 to ˜95% confluency. […] […] […] All media was removed and 100 μL of cell culture lysis buffer (100 mM Tris/HCl pH 7.4, 300 mM NaCl, 5 mM EDTA, 5 mM EGTA, 2 mM DTT, 10% glycerol, 2% triton X-100, Roche protease inhibitor, and phosphatase inhibitor cocktail 3 (Sigma-Aldrich St. Louis, MO)) was added to each well, transferred to a clean 1.5 mL Eppendorf tube, and incubated on ice for a minimum of 10 min. The cell lysates were centrifuged at 21,000 G for 10 min. The clarified lysate was stored at −80° C.
Protein samples were subjected to electrophoresis on polyacrylamide gels and transferred to PVDF membranes. The membranes were incubated overnight in TBST blocking buffer containing 5% milk (w/v) (for the antibodies raised in sheep) or 3% BSA (w/v) (for all other antibodies). […] Signal was detected by enhanced chemiluminescence (Bio-rad) imaged on a ChemiDoc™ XRS+ CCD camera.

[2] = tested on: mDCT15 cells; assay: Cell volume of mDCT15 cells by microscopic imaging; assay type: cell-based, mouse; conditions: 40 μM, four-hour time course
Method: FIGS. 12A-12F illustrate the finding that (7a) depletes phosphorylated NKCC1 and reduces cell volume in mDCT15 cells. FIG. 12A: Structures of (7a) and analog (7b). FIG. 12B: In vitro dose-dependent inhibition comparing (7a) and (7b) evaluated by western blot using T^PNKCC1. FIG. 12C: Western blot analysis of NKCC1 phospho-depletion in mDCT15 cells under various conditions. FIG. 12D: mDCT15 cells were incubated with 40 μM (7a), 40 μM Cabozantinib (XL-184), or equivalent volume of DMSO vehicle for 1 hr, 2 hr, 3 hr, and 4 hr. NKCC1 phosphorylation was monitored using the T^PNKCC1 antibody and compared to total NKCC1. FIG. 12E: HEK 293 induced to express KCC were incubated with 40 μM (7a), 40 μM Cabozantinib (XL-184), or equivalent volume of DMSO vehicle for 1 hr, and 2 hr time points. KCC phosphorylation was monitored using the T^PKCC antibody and compared to total KCC using C-Myc antibody. FIG. 12F: mDCT15 cells were incubated with 40 μM (7a), 40 μM Cabozantinib (XL-184), or equivalent volume of DMSO vehicle for a 1 hr, 2 hr, 3 hr, and 4 hr time course. After incubation the cells were imaged using 20× bright field microscopy. 1 hr and 4 hr time points are shown.
FIG. 13 comprises images of mDCT15 cells incubated with 40 μM (7a) 40 μM, Cabozantinib (XL-184), or equivalent volume of DMSO vehicle for a 1 hr, 2 hr, 3 hr, and 4 hr time course (partially shown in FIG. 12F). […]

[3] = tested on: GBM612 cells; assay: On target activity in GBM612 cells (Western blot); assay type: cell-based, human; conditions: on target activity in GBM cells
[4] = molecular target: T1, SPAK (Homo sapiens, UniProt Q9UEW8); assay: In vitro SPAK ELISA assay monitoring NKCC1 phosphorylation (T^PNKCC1 antibody); assay type: biochemical; conditions: analogues of (6a)
T1 construct: GST (N, cleaved yes); made in house; host or cells: E. coli EcAR7 with Sep-OTS
Method: The GlaxoSmithKline published kinase inhibitor set, PKIS (Dranchak, et al., 2013, Plos One 8), was used to evaluate potential SPAK drug inhibitor candidates. The pilot inhibitor screen tested the capability of 320 compounds to inhibit the kinase activity of purified co-expressed SP382 WNK1 (1-661)/WT SPAK using an ELISA based screen monitoring a reduction in NKCC1 phosphorylation with the NKCC1 phospho-specific antibody, T^PNKCC1. 10 nL of each inhibitor compound (final concentration 20 μM) or DMSO vehicle controls were added to dry 384 well-flat bottom low volume non-binding assay plates (Corning) using an Echo 550 Acoustic dispenser (Labcyte). […] The assay plates were centrifuged at 200 g for 1 min, then incubated at RT for 30 min. Following inhibitor incubation, the kinase reaction was initiated with 1 μL of 50 μM ATP (final concentration 10 uM) or 1 μL of Kinase reaction buffer for negative controls and reacted for 1 hr at 37° C. The reaction was then quenched with 5 μL Kinase Stop buffer (100 mM Tris pH 8, 300 mM NaCl, 40 mM EDTA) and incubated for 1 min with shaking at 450 rpm. 2 μL of each quenched reaction was added to 18 μL TBS (50 mM Tris pH 8, 150 mM NaCl) in white 384-well Nunc Maxisorp plates (Thermo Scientific) using a PlateMate Plus (Thermo Scientific). The plate was shaken for 1 min at 450 rpm, sealed and incubated at 4° C. overnight to allow the protein contents of the reaction to bind to the Maxisorp plate. The next morning the solution was removed, and the plates were then subjected to 3 washes in TBST (50 mM Tris pH 7.5, 150 mM NaCl. 0.05% Tween 20) for 5 min each wash with shaking at 400 rpm. The plates were blocked with TBST buffer containing 3% BSA (w/v) at RT for 2 hrs at RT. The blocking buffer was removed, and the plates were immunoblotted with 1:50,000 dilution of T^PNKCC1 in blocking buffer for 2 hrs at RT. The plates were then subjected to 3 washes in TBST for 5 min each wash with shaking at 400 rpm, followed by incubating with 1:10,000 dilution of 2° DAR-HPR antibody in blocking buffer for 1 hr at RT. The plates were washed again 3 times in TBST for 5 min each wash with shaking at 400 rpm. Signal was detected by SuperSignal ELISA Pico Chemiluminescent substrate (ThermoScientific), and read on an EnVision multi-label plate reader (Perkin-Elmer).

[5] = molecular target: T1, SPAK; assay: as above; assay type: biochemical; conditions: on target activity in vitro; read-out: IC50 In vitro
[6] = tested on: pancreatic cancer cells; assay: Pancreatic cancer cell migration in vitro; assay type: cell-based; conditions: FIG. 36

Row | Compound | NKCC1 phosphorylation over time without osmotic triggers [1] | Cell volume change, mDCT15 cells [2] | Activity in GMB612, 0.2 μM [3] | Activity in GMB612, 2 μM [3] | SPAK inhibition [4] | IC50 [5] [µM] | pancreatic cancer cell migration [6]
1 | COc1cc2nccc(Oc3ccc(NC(=O)C4(C(=O)Nc5ccc(F)cc5)CC4)cc3)c2cc1OC [XL-184, Cabozantinib malate] | no discernable effect on NKCC1 phosphorylation | neither XL-184 nor Vehicle had any detectable change | – | – | – | – | –
2 | CNC(=O)c1ccccc1Nc1nc(Nc2ccc(OC)c(N3CCN(C)CC3)c2)ncc1C#N [(6d), 2-((5-cyano-2-((4-methoxy-3-(4-methylpiperazin-1-yl)phenyl)amino)pyrimidin-4-yl)amino)-N-methylbenzamide] | – | – | No | Yes | measurable SPAK inhibition | 5.2 | –
3 | COc1ccc(Nc2ncc(C#N)c(Nc3ccccc3-c3nc[nH]n3)n2)cc1N1CCN(C)CC1 [(6g), 4-((2-(1H-1,2,4-triazol-3-yl)phenyl)amino)-2-((4-methoxy-3-(4-methylpiperazin-1-yl)phenyl)amino)pyrimidine-5-carbonitrile] | – | – | No | No | – | 12 | –
4 | COc1ccc(Nc2ncc(C#N)c(Nc3ccccc3-c3ncco3)n2)cc1N1CCN(C)CC1 [(6c), 2-((4-methoxy-3-(4-methylpiperazin-1-yl)phenyl)amino)-4-((2-(oxazol-2-yl)phenyl)amino)pyrimidine-5-carbonitrile] | – | – | No | No | – | 9 | –
5 | COc1ccc(Nc2ncc(C#N)c(Nc3ccccc3-c3nnn[nH]3)n2)cc1N1CCN(C)CC1 [(6f), 4-((2-(1H-tetrazol-5-yl)phenyl)amino)-2-((4-methoxy-3-(4-methylpiperazin-1-yl)phenyl)amino)pyrimidine-5-carbonitrile] | – | – | No | Yes | measurable SPAK inhibition | 3.5 | –
6 | Nc1ccn([C@@H]2O[C@H](CO)[C@@H](O)C2(F)F)c(=O)n1 [Gemcitabine, reference compound] | – | – | – | – | – | – | does not
7 | COc1ccc(Nc2ncc(C#N)c(Nc3cccc4c3C(=O)NC4)n2)cc1N1CCN(C)CC1 [(6b)] | – | – | Yes | Yes | measurable SPAK inhibition | 0.05 | –
8 | CONC(=O)c1ccccc1Nc1nc(Nc2ccc(OC)c(N3CCN(C)CC3)c2)ncc1C#N [(6e), 2-((5-cyano-2-((4-methoxy-3-(4-methylpiperazin-1-yl)phenyl)amino)pyrimidin-4-yl)amino)-N-methoxybenzamide] | – | – | No | Yes | measurable SPAK inhibition | 2.6 | –
